Each block holds one compound with its values, some of them ahead of it.
What was measured:
[1] = test system: RPA2 phosphorylation at Ser4 and Ser8; experiment: RPA2 Ser4/Ser8 phosphorylation by Western blot in MEF cells; type: cell-based
Description: (§1) HR repair is initiated by DSB end resection that is mediated by the Mre11 complex, whereas Ku tightly bound to DNA ends blocks Mre11 DNA resection. As Mcl-1 negatively regulates Ku function via direct binding, Mcl-1 may reverse the Ku-mediated inhibitory effect on Mre11 complex-mediated DNA end resection. Mre11-Rad50 complex-mediated exonuclease activity was analyzed in the presence of increasing concentrations of Mcl-1 protein using 5′-32P-end-labeled fork DNA as a substrate. […] Ku heterodimer inhibited MR-mediated DNA resection (FIG. 2A, lane 3 vs. lane 2), which was gradually reversed by the addition of increasing concentrations of purified Mcl-1 protein in the presence of a constant amount of Ku protein (FIG. 2A, lane 3 vs. lanes 4-7). BSA was used as control and had no effect on DNA resection. […] In addition, RPA2 is an established reporter of DNA end resection during HR repair in cells. To further test the effect of Mcl-1 on DNA resection in cells, RPA2 foci formation following treatment with Hu, camptothecin (CPT), or IR was compared in WT and Mcl1−/− MEFs. […] RPA2 phosphorylation at Ser4 and Ser8 was analyzed by Western blot using the S4/S8 dual-site phosphospecific RPA2 antibody following exposure of MEF WT or MEF Mcl1−/− cells to IR, CPT, and Hu. […]

H1299 cells [2] = experiment: Cell cycle analysis of H1299 cells during replication stress time course; type: cell-based
Description: (§2) To test whether replication stress affects the Mcl-1/Ku interaction, time course experiments were carried out. H1299 cells were treated with Hu or olaparib for various times (0, 0.5, 1, 2, 8, or 24 hours). The Mcl-1/Ku interaction and cell cycle were analyzed simultaneously at each time point. […] These findings indicate that, in addition to S/G2 cell cycle phase, Hu- or olaparib-induced DNA replication stress can also promote Mcl-1/Ku interaction.

[3] = test system: Rad51 foci in H1299 cells; experiment: Rad51 foci immunostaining in H1299 cells; type: cell-based; settings: for induction of Rad51 foci: single agent
Description: Rad51 foci were quantified by counting of at least 100 cells from each sample.
(§3) To test whether inhibition of HR by MI-223 sensitizes cancer cells to DNA replication stress, H1299 cells were treated with olaparib or Hu in the absence or presence of MI-223, followed by analysis of Rad51 foci and clonogenic survival. […] Importantly, MI-223 suppression of HR DNA repair activity synergizes with olaparib or Hu to kill H1299 lung cancer cells (FIG. 4H).

Mcl-1/Ku complex = target: T1, Mcl-1/Ku complex (Homo sapiens, UniProt Q07820); experiment: Co-IP of Mcl-1/Ku interaction in H1299 cells; type: cell-based; settings: for Mcl-1/Ku interaction: time course 0, 0.5, 1, 2, 8, or 24 hours
T1 construct: endogenous in cells; host or cells: H1299
Description: as §2
(§4) To assess whether Mcl-1 is essential for the effect of MI-223 on HR activity, Mcl-1 was knocked out from H1299 cells using CRISPR/Cas9 to generate Mcl-1-deficient cells. WT Mcl-1, Ku binding-deficient mutant ΔBH1, and empty vector control were exogenously expressed in Mcl-1-knockout H1299 (Mcl1−/− H1299) cells, followed by treatment with MI-223 for 24 hours and analysis of HR efficacy. […] Intriguingly, expression of exogenous WT Mcl-1 but not the Ku binding-deficient ΔBH1 Mcl-1 mutant in Mcl-1-deficient H1299 cells restored the inhibitory effect of MI-223 on HR activity.

[4] = test system: RPA2 foci in WT MEF cells; experiment: RPA2 foci immunostaining in WT MEF cells (DNA end resection); type: cell-based
Description: as §1

[5] = test system: H1299 lung cancer xenografts; experiment: H1299 lung cancer xenograft tumor growth in nude mice; type: in vivo; settings: for repression of lung cancer in vivo (tumor volume): single agent, 0, 20, 40, 80 and 120 mg/kg/day for 30 days; for suppression of lung tumor growth: vs single agent
Description: Nu/Nu nude mice with H1299 lung cancer xenografts were treated with increasing doses of MI-223 (0, 20, 40, 80 and 120 mg/kg/day) for 30 days (n=8 mice per group). Tumor volume was measured once every 2 days. After 30 days, the mice were sacrificed, and the tumors were removed and analyzed. […]

Mcl-1 = Mcl-1 (Homo sapiens, UniProt Q07820); experiment: Fluorescence polarization (FP) assay with fluorescence-labeled PUMA BH3 peptide; settings: read-out: inhibitory constant (KI) of MI-223/Mcl-1 binding
Description: (§5) To confirm the binding of MI-223 with Mcl-1, isothermal titration calorimetry (ITC) was used to measure MI-223/Mcl-1 binding. ITC is a direct, label- and immobilization-free technique that measures the binding affinity between proteins and small-molecule ligands that interact with each other, and can analyze binding constant (KD) values in the millimolar and nanomolar range. ITC experiments were performed to assess MI-223/Mcl-1 binding using an auto-iTC200 instrument. […] In addition to the binding constant (KD) value measured by ITC, we also used fluorescence polarization (FP) to measure the inhibitory constant (KI) value using a fluorescence-labeled PUMA BH3 peptide. The PUMA BH3 peptide was chose for this FP assay to evaluate Mcl-1/MI-223 binding because it has been reported to bind specifically to the […] of Mcl-1. […] Based on findings from both ITC (i.e., KD) and FP (i.e., KI), we conclude that MI-223 may directly bind to Mcl-1 with good affinity.

[6] = test system: HR efficacy in Mcl-1-deficient H1299 cells; experiment: HR efficacy in Mcl-1-knockout H1299 cells; type: cell-based; settings: 24 hours
Description: as §4

[7] = test system: HR activity in H1299 DR-GFP cells; experiment: HR repair efficiency in H1299 DR-GFP cells; type: cell-based
[8] = target: T2, BH1 deletion Mcl-1 mutant protein (ΔBH1) (Homo sapiens, UniProt Q07820, DEL256-265); experiment: Isothermal titration calorimetry (ITC), BH1 deletion mutant; type: binding; settings: ITC assay
T2 construct: made in house
Description: (§6) The binding constant (KD) value was determined by fitting of the titration curve to a 1-site binding mode
as §5

[9] = test system: H1299 lung cancer xenografts; experiment: IHC staining of Ki-67 and γ-H2AX in xenograft tumor tissues; type: in vivo, mice
H1299 lung cancer cells = experiment: Colony formation assay (clonogenic survival) in H1299 cells; type: cell-based
Description: as §3

H1299 cells [10] = experiment: Annexin V binding assay; type: cell-based
[11] = Toxicity evaluation in treated xenograft mice (weight, blood chemistry, blood counts, histopathology); type: in vivo
[12] = test system: HR activity in U2OS DR-GFP cells; experiment: HR repair efficiency in U2OS DR-GFP cells; type: cell-based; settings: dose-dependent
WT Mcl-1 protein = WT Mcl-1 protein (Homo sapiens, UniProt Q07820); experiment: Isothermal titration calorimetry (ITC), MI-223/Mcl-1 binding; settings: 1-site binding mode, read-out: binding constant (KD)
Description: as §6, §5

[13] = MI-223 in combination with Hu, compared with Hu alone
[14] = MI-223 in combination with olaparib, compared with olaparib alone
[15] = mice treated with MI-223 alone or in combination with olaparib or Hu

T1 sequence (Q07820 whole entry, one chain of several): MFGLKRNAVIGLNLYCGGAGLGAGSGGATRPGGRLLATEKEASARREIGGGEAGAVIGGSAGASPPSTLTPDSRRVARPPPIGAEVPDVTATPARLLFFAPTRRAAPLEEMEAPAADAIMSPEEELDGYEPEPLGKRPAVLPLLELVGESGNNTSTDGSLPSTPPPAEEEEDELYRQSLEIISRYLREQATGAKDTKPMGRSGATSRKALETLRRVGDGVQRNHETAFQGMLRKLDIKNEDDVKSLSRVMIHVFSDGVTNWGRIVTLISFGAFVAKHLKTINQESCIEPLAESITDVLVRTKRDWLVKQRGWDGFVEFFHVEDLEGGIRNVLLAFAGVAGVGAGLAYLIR
Mcl-1, sequence (Q07820 whole entry): as the sequence (Q07820 whole entry, one chain of several) above
WT Mcl-1 protein, sequence (Q07820 whole entry): as the sequence (Q07820 whole entry, one chain of several) above
T2 sequence (Q07820 with tags, fused parts or gaps DEL256-265): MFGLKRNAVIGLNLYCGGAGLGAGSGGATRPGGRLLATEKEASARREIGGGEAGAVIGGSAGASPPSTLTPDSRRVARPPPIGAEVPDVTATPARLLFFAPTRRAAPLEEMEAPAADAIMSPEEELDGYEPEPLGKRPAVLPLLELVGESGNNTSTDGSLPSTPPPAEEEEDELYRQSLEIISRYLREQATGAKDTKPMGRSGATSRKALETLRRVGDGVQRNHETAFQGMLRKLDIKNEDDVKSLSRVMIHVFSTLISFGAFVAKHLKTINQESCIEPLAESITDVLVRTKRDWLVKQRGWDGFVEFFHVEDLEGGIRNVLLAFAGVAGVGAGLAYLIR

Mcl-1/Ku interaction (Mcl-1/Ku complex): increased at 2, 8, and 24 hours
Structure (SMILES): NC(=O)NO [Hu, hydroxyurea]
RPA2 phosphorylation at S4 and S8 ([1]; Hu 0.2 mM for 24 hours): stimulated RPA2 phosphorylation
percentage of cells in S phase (H1299 cells [2]; 24-hour time point): enhanced
percentage of cells in S phase (H1299 cells [2]; short time points (2 and 8 hours)): did not alter
induction of Rad51 foci [3]: induced Rad51 foci
RPA2 foci formation ([4]; Hu 0.2 mM for 24 hours): induced RPA2 foci formation

Mcl-1/Ku interaction (Mcl-1/Ku complex): increased at 2, 8, and 24 hours
Structure (SMILES): O=C(c1cc(Cc2n[nH]c(=O)c3ccccc23)ccc1F)N1CCN(C(=O)C2CC2)CC1 [olaparib]
percentage of S phase cells (H1299 cells [2]; time points tested): did not significantly affect
induction of Rad51 foci [3]: induced Rad51 foci

Structure (SMILES): Cc1ccc(C)c(NC(=O)C(=O)C(C(=O)c2ccc3ccccc3c2)C2OC(=O)c3ccccc32)c1 (stereo not shown) [MI-985, N-(2,5-dimethylphenyl)-4-(naphthalen-2-yl)-2,4-dioxo-3-(3-oxo-1,3-dihydroisobenzofuran-1-yl)butanamide]
repression of lung cancer in vivo (tumor volume) [5]: potently represses lung cancer in vivo

Ki (Mcl-1): 193 ± 4.3 nM
binding to ΔBH1 Mcl-1 mutant protein [8]: failed to bind
disruption of Mcl-1/Ku complex (Mcl-1/Ku complex; increasing concentrations, 24 hours, co-IP with Mcl-1 antibody): disrupted the Mcl-1/Ku complex
Kd (WT Mcl-1 protein): 161 ± 7 nM
Structure (SMILES): CCOC1=CC=CC(=CNn2c(-c3ccccc3Cl)nc3ccccc3c2=O)C1=O [MI-223, 2-(2-chlorophenyl)-3-(((5-ethoxy-6-oxocyclohexa-2,4-dien-1-ylidene)methyl)amino)quinazolin-4(3H)-one]
HR efficacy [6]: no significant further effect
HR activity ([7]; H1299 DR-GFP cells, dose-dependent): potently inhibited HR activity
HR efficacy ([7]; H1299 parental cells, 24 hours): dose-dependent reduction of HR efficacy
Ki-67 in tumor tissues [9, 13]: significant reduction of Ki-67
γ-H2AX in tumor tissues [9, 13]: increased levels of γ-H2AX
Ki-67 in tumor tissues [9, 14]: significant reduction of Ki-67
γ-H2AX in tumor tissues [9, 14]: increased levels of γ-H2AX
suppression of lung tumor growth ([5]; MI-223 40 mg/kg/d in combination with Hu 500 mg/kg): significantly greater efficacy than a single agent alone
suppression of lung tumor growth ([5]; MI-223 40 mg/kg/d in combination with olaparib 40 mg/kg/d, 3 weeks): significantly greater efficacy than a single agent alone
repression of lung cancer in vivo (tumor volume) [5]: potently represses lung cancer in vivo
inhibition of Rad51 foci formation ([3]; olaparib- or Hu-induced foci, MI-223 4 μM, 24 hours): strongly inhibited Rad51 foci formation
synergy in cell killing (colony formation) (H1299 lung cancer cells; MI-223 in combination with Hu): synergizes
synergy in cell killing (colony formation) (H1299 lung cancer cells; MI-223 in combination with olaparib): synergizes
apoptotic cell death (H1299 cells [10]): did not induce significant apoptotic cell death
histopathologic evaluation of normal tissues ([11]; brain, heart, lung, liver, spleen, kidney, and intestine): no evidence of normal tissue toxicity
increase in alanine transaminase, aspartate transaminase, or blood urea nitrogen [11, 15]: no significant
reduction in wbcs, rbcs, hemoglobin, or platelets [11, 15]: no significant
weight loss [11, 15]: no significant weight loss
HR activity [12]: potently inhibited HR activity

Structure (SMILES): CC[C@@]1(O)C(=O)OCc2c1cc1n(c2=O)Cc2cc3ccccc3nc2-1 [CPT, camptothecin]
RPA2 phosphorylation at S4 and S8 ([1]; CPT 1 μM for 1 hour): stimulated RPA2 phosphorylation
RPA2 foci formation ([4]; CPT 1 μM for 1 hour): induced RPA2 foci formation

Structure (SMILES): O=[N+]([O-])c1ccccc1C=NNC(=S)NN=Cc1ccccc1[N+](=O)[O-] [MI-361, N′-(2-nitrobenzylidene)-2-(2-nitrobenzylidene)hydrazine-1-carbothiohydrazide]
repression of lung cancer in vivo (tumor volume) [5]: potently represses lung cancer in vivo

Structure (SMILES): O=C1C=CC=CC1=CNNc1nnc(NNC=C2C=CC=CC2=O)c2ccccc12 [MI-647, 6,6′-((phthalazine-1,4-diylbis(hydrazine-2,1-diyl))bis(methanylylidene))bis(cyclohexa-2,4-dien-1-one)]
repression of lung cancer in vivo (tumor volume) [5]: potently represses lung cancer in vivo

Source: patent US11524000B2, “Targeting Mcl-1 to enhance DNA replication stress sensitivity for cancer therapy” (Emory University, priority 2017, dated 2022)
